{"source": "patent US11229204B2", "about": "“Herbicidal composition comprising at least one phenolic active compound” (UNIVERSITÉ DE LIÈGE, priority 2018, dated 2022)", "key": {"[1]": {"test_system": "Raphanus sativus and Lepidium sativum", "details": "27 flavonoids tested; only poor results on radical elongation for the highest tested concentration of 10^−4M; cited from earlier work"}, "Trifolium incarnatum": {"test_system": "Trifolium incarnatum", "test": "Pre-emergence activity, experiment n° 2: hypocotyl and root lengths of seeds on moistened filter paper", "format": "in vivo", "details": "100 mg/L in methanol 1%", "description": "Seeds of Trifolium incarnatum were obtained from ECOSEM industry (Belgium). Filter papers were placed in petri dishes and moistened with 2 ml of methanol 1% solution for the seedling control, or with myricitrin solution at 100 mg/L in methanol 1% for the treated seedling. Methanol was identified as a solvent not interfering with the pre-emergence of plants. Ten seeds of Trifolium incarnatum were then placed immediately in each petri dish and three replicates were prepared. All petri dishes were randomly placed in a growth chamber at a temperature of 23±1° C., in the dark and the hypocotyls and root lengths were measured after 7 days."}}, "data": [{"smiles": "COc1c(-c2ccccc2)oc2ccccc2c1=O", "note": "[3-OCH3-flavone]", "values": [{"measurement": "effect on germination and radical elongation", "setting": "[1]", "value": "act on germination and on radical elongation"}]}, {"smiles": "COc1ccc(-c2cc(=O)c3ccccc3o2)cc1OC", "note": "[3′,4′-di-OCH3-flavone]", "values": [{"measurement": "effect on germination and radical elongation", "setting": "[1]", "value": "act on germination and on radical elongation"}]}, {"smiles": "C[C@@H]1O[C@@H](Oc2c(-c3cc(O)c(O)c(O)c3)oc3cc(O)cc(O)c3c2=O)[C@H](O)[C@H](O)[C@H]1O", "note": "[myricitrin]", "values": [{"measurement": "seed germination compared with control", "setting": "Trifolium incarnatum; 7 incubation days", "value": "inhibited seed germination"}, {"measurement": "development of roots and hypocotyls", "setting": "Trifolium incarnatum; 7 days (FIG. 5)", "value": "inhibited"}, {"measurement": "phytotoxic effect on the pre-emergence in comparison with the control", "setting": "Trifolium incarnatum; 7 days, 23±1° C., dark (FIG. 5)", "value": "significant phytotoxic effect"}]}, {"smiles": "O=C1C[C@@H](c2ccccc2)Oc2cc(O)cc(O)c21", "note": "[pinocembrin, 5,7-di-OH-flavanone]", "values": [{"measurement": "effect on germination and radical elongation", "setting": "[1]", "value": "act on germination and on radical elongation"}]}, {"smiles": "O=c1c(O)c(-c2ccc(O)c(O)c2)oc2cc(O)cc(O)c12", "note": "[quercetin, 3,5,7,3′,4′-penta-OH-flavone]", "values": [{"measurement": "effect on germination and radical elongation", "setting": "[1]", "value": "act on germination and on radical elongation"}]}]}
